The values below come from US10344017B2, “Pyrrolcarboxamide derivatives for the inhibition of ERK5” (CANCER RESEARCH TECHNOLOGY LIMITED, priority 2014, dated 2019).

The assay deals with T1, ERK5 (Homo sapiens, UniProt Q13164).
T1 construct: made in house
In words: ERK5 IMAP assay (fluorescence polarisation). The format is biochemical. The settings on record: average (e.g. geometric mean) where more than one data point; read-out: ERK5 IC50. The method, then: The assay buffer was prepared using 0.01% Tween®-20 5× stock, supplied as part of IMAP™ FP Progressive Binding System Kit (Molecular Devices R7436) and diluted to 1× using miliQ H2O. 1 μL of a 1M DTT stock was added for every 1 mL of 1× assay buffer to give a final concentration of 1 mM DTT.
ERK5 was expressed and purified at CRT-DL by Leon Pang and Sue Young. Aliquots were stored at −80° C. The ERK5 working solution was used at a […] final dilution in assay buffer. […] For 1 plate, […] of ERK5 stock was added to 2262 μL of 1× assay buffer.
To prepare the IMAP™ binding solution for one plate 20.5 μL of IMAP™ binding reagent stock, 1476 μL of 1× binding buffer A (60%), and 984 μL of binding buffer B (40%) (IMAP™ FP Progressive screening express kit (Molecular Devices R8127) was added to 9819.5 μL of milliQ H2O.
1 μL of inhibitor (in 60:40 H2O/DMSO) or 60:40 H2O/DMSO (for controls and blanks) were dry-spotted into the relevant wells of a 384-well assay plate using the MATRIX PlateMate® Plus. 5 μL of ERK5 working solution was added to test and control wells, and 5 μL of 1× assay buffer added to blanks; 4 μL of ATP/substrate working solution was added to all wells using a Matrix multichannel pipette. The plate was sealed using DMSO resistant clear seal and incubated for 2 h at 37° C. 1 μL of the kinase reaction mixture from the first plate was dry spotted into a second 384-well assay plate using the MATRIX PlateMate® Plus. 9 μL of assay buffer was added, followed by 30 μL of IMAP™ binding solution using a multichannel pipette. The plate was incubated at RT in darkness for 2 h. The assay plate was then read on an Analyst HT plate reader (Molecular Devices) using the settings described below: […]

T1 sequence (Q13164 whole entry): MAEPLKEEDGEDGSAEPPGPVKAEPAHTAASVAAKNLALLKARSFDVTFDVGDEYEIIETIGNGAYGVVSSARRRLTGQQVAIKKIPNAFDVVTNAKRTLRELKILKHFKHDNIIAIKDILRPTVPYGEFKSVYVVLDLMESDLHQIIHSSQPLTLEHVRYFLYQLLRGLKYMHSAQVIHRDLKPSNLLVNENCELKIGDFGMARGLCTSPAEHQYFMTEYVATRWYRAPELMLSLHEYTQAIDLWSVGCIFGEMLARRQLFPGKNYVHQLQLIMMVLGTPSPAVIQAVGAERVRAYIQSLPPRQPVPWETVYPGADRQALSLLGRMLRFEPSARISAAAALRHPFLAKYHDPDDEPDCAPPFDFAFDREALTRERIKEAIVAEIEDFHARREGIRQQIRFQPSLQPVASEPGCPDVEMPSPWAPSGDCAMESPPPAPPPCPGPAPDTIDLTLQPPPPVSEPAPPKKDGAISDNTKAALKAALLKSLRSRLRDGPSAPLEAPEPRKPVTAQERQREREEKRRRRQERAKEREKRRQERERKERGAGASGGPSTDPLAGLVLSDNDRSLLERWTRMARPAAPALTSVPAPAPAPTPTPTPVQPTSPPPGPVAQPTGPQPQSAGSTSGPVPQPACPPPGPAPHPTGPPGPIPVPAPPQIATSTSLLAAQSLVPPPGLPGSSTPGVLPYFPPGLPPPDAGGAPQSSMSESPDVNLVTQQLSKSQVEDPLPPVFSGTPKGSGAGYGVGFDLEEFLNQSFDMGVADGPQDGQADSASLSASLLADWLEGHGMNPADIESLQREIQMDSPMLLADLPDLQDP

On to `C=Cc1ccc(F)c(C(=O)c2c[nH]c(C(=O)NC3CCN(C)CC3)c2)c1F` [Ex 167], for which the IC50 (in general, the concentration that gives 50% inhibition) was found to be 643 nM.

As for `CC(C)N1CCC(NC(=O)c2cc(C(=O)c3c(F)cccc3Cl)c[nH]2)CC1` [Example 1, 4-(2-Chloro-6-fluorobenzoyl)-N-(1-isopropylpiperidin-4-yl)-1H-pyrrole-2-carboxamide], the IC50 was 657 nM.

With `CC(C)(C)OC(=O)N1CCC(NC(=O)c2cc(C(=O)c3c(Cl)ccc(Cl)c3F)c[nH]2)CC1` [Example 2, tert-Butyl 4-(4-(3,6-dichloro-2-fluorobenzoyl)-1H-pyrrole-2-carboxamido)piperidine-1-carboxylate], the IC50 is 1350 nM.

In the case of `CCN1CCC(NC(=O)c2cc(C(=O)c3c(F)cccc3Cl)c[nH]2)CC1` [Example 5, 4-(2-Chloro-6-fluorobenzoyl)-N-(1-ethylpiperidin-4-yl)-1H-pyrrole-2-carboxamide], the IC50 came out at 437 nM.

Take `CC(=O)N1CCC(NC(=O)c2cc(C(=O)c3c(F)cccc3Cl)c[nH]2)CC1` [Example 6, N-(1-Acetylpiperidin-4-yl)-4-(2-chloro-6-fluorobenzoyl)-1H-pyrrole-2-carboxamide]: the IC50 was found to be 459 nM.

As to `CS(=O)(=O)N1CCC(NC(=O)c2cc(C(=O)c3c(F)cccc3Cl)c[nH]2)CC1` [Example 8, 4-(2-Chloro-6-fluorobenzoyl)-N-(1-(methylsulfonyl)piperidin-4-yl)-1H-pyrrole-2-carboxamide], the half-maximal inhibitory concentration (IC50) was 298 nM.

For the molecule `O=C(NC1CCN(c2ncccn2)CC1)c1cc(C(=O)c2c(F)cccc2Cl)c[nH]1` [Example 10, 4-(2-Chloro-6-fluorobenzoyl)-N-(1-(pyrimidin-2-yl)piperidin-4-yl)-1H-pyrrole-2-carboxamide], the 50% inhibitory concentration (IC50) amounted to 264 nM.

In the case of `O=C(NC1CCN(C(=O)C(F)(F)F)CC1)c1cc(C(=O)c2c(Cl)ccc(Cl)c2F)c[nH]1` [Example 11, 4-(3,6-Dichloro-2-fluorobenzoyl)-N-(1-(2,2,2-trifluoroacetyl)piperidin-4-yl)-1H-pyrrole-2-carboxamide], the IC50 is 521 nM.

As for `CNc1ncc(NC(=O)c2cc(C(=O)c3c(F)cccc3Cl)c[nH]2)cn1` [Example 12, 4-(2-Chloro-6-fluorobenzoyl)-N-(2-(methylamino)pyrimidin-5-yl)-1H-pyrrole-2-carboxamide], the IC50 turned out to be 1750 nM.

As for `O=C(Nc1cnc(N2CCCC2)nc1)c1cc(C(=O)c2c(F)cccc2Cl)c[nH]1` [Example 14, 4-(2-Chloro-6-fluorobenzoyl)-N-(2-(pyrrolidin-1-yl)pyrimidin-5-yl)-1H-pyrrole-2-carboxamide], the IC50 is 4110 nM.

For the molecule `O=C(Nc1cnc(N2CCN(C3CC3)CC2)nc1)c1cc(C(=O)c2c(Cl)ccc(Cl)c2F)c[nH]1` [Example 17, N-(2-(4-cyclopropylpiperazin-1-yl)pyrimidin-5-yl)-4-(3,6-dichloro-2-fluorobenzoyl)-1H-pyrrole-2-carboxamide], the IC50 turned out to be 1750 nM.

In the case of `O=C(Nc1cnc(N2CCOCC2)nc1)c1cc(C(=O)c2c(Cl)ccc(Cl)c2F)c[nH]1` [Example 20, 4-(3,6-Dichloro-2-fluorobenzoyl)-N-(2-morpholinopyrimidin-5-yl)-1H-pyrrole-2-carboxamide], the IC50 was 1500 nM.

`CC(=O)OC1CCN(c2ncc(NC(=O)c3cc(C(=O)c4c(F)cccc4Cl)c[nH]3)cn2)CC1` [Example 21, 1-(5-(4-(2-Chloro-6-fluorobenzoyl)-1H-pyrrole-2-carboxamido)pyrimidin-2-yl)piperidin-4-yl acetate]: the IC50 came to 5380 nM.

For the molecule `CC(=O)OC1CCN(c2ncc(NC(=O)c3cc(C(=O)c4c(Cl)ccc(Cl)c4F)c[nH]3)cn2)CC1` [Example 22, 1-(5-(4-(3,6-Dichloro-2-fluorobenzoyl)-1H-pyrrole-2-carboxamido)pyrimidin-2-yl)piperidin-4-yl acetate], the IC50 worked out at 9660 nM.

On to `CN1CCC(Nc2ncc(NC(=O)c3cc(C(=O)c4c(F)cccc4Cl)c[nH]3)cn2)CC1` [Example 23, 4-(2-Chloro-6-fluorobenzoyl)-N-(2-((1-methylpiperidin-4-yl)amino)pyrimidin-5-yl)-1H-pyrrole-2-carboxamide], for which the IC50 amounted to 93 nM.

`O=C(Nc1cnc(N2CCNCC2)nc1)c1cc(C(=O)c2c(F)cccc2Cl)c[nH]1` [Example 26, 4-(2-Chloro-6-fluorobenzoyl)-N-(2-(piperazin-1-yl)pyrimidin-5-yl)-1H-pyrrole-2-carboxamide]: the IC50 amounted to 88.8 nM.

In the case of `O=C(Nc1cnc(N2CCC(O)CC2)nc1)c1cc(C(=O)c2c(F)cccc2Cl)c[nH]1` [Example 28, 4-(2-Chloro-6-fluorobenzoyl)-N-(2-(4-hydroxypiperidin-1-yl)pyrimidin-5-yl)-1H-pyrrole-2-carboxamide], the IC50 turned out to be 2230 nM.

On to `O=C(Nc1cnc(N2CCC(O)CC2)nc1)c1cc(C(=O)c2c(Cl)ccc(Cl)c2F)c[nH]1` [Example 29, 4-(3,6-Dichloro-2-fluorobenzoyl)-N-(2-(4-hydroxypiperidin-1-yl)pyrimidin-5-yl)-1H-pyrrole-2-carboxamide], for which the IC50 was 537 nM.

For `CN1CCC(Nc2ccc(NC(=O)c3cc(C(=O)c4c(Cl)ccc(Cl)c4F)c[nH]3)cn2)CC1` [Example 32, 4-(3,6-Dichloro-2-fluorobenzoyl)-N-(6-((1-methylpiperidin-4-yl)amino)pyridin-3-yl)-1H-pyrrole-2-carboxamide], the IC50 stood at 23.8 nM.

Consider `O=C(Nc1ccnc(Cl)c1)c1cc(C(=O)c2c(F)cccc2Cl)c[nH]1` [Example 34, 4-(2-Chloro-6-fluorobenzoyl)-N-(2-chloropyridin-4-yl)-1H-pyrrole-2-carboxamide], for which the IC50 is 2320 nM.

As to `O=C(Nc1ccnc(N2CCCC2)c1)c1cc(C(=O)c2c(F)cccc2Cl)c[nH]1` [Example 35, 4-(2-Chloro-6-fluorobenzoyl)-N-(2-(pyrrolidin-1-yl)pyridin-4-yl)-1H-pyrrole-2-carboxamide], the IC50 worked out at 523 nM.

In the case of `CN1CCN(c2cc(NC(=O)c3cc(C(=O)c4c(F)cccc4Cl)c[nH]3)ccn2)CC1` [Example 36, 4-(2-Chloro-6-fluorobenzoyl)-N-(2-(4-methylpiperazin-1-yl)pyridin-4-yl)-1H-pyrrole-2-carboxamide], the IC50 was determined as 137 nM.

On to `CN1CCN(c2cc(NC(=O)c3cc(C(=O)c4c(Cl)ccc(Cl)c4F)c[nH]3)ccn2)CC1` [Example 37, 4-(3,6-Dichloro-2-fluorobenzoyl)-N-(2-(4-methylpiperazin-1-yl)pyridin-4-yl)-1H-pyrrole-2-carboxamide], for which the IC50 was determined as 36 nM.

Regarding `O=C(Nc1ccnc(N2CCOCC2)c1)c1cc(C(=O)c2c(Cl)ccc(Cl)c2F)c[nH]1` [Example 38, 4-(3,6-Dichloro-2-fluorobenzoyl)-N-(2-morpholinopyridin-4-yl)-1H-pyrrole-2-carboxamide], the IC50 turned out to be 343 nM.

With `COc1cc(NC(=O)c2cc(C(=O)c3c(F)cccc3Cl)c[nH]2)ccn1` [Example 40, 4-(2-Chloro-6-fluorobenzoyl)-N-(2-methoxypyridin-4-yl)-1H-pyrrole-2-carboxamide], the IC50 came out at 1830 nM.

Consider `O=C(Nc1cnn(C2CCN(CC(F)(F)F)CC2)c1)c1cc(C(=O)c2c(Cl)ccc(Cl)c2F)c[nH]1` [Example 42, 4-(3,6-Dichloro-2-fluorobenzoyl)-N-(1-(1-(2,2,2-trifluoroethyl)piperidin-4-yl)-1H-pyrazol-4-yl)-1H-pyrrole-2-carboxamide], for which the IC50 is 3550 nM.

As for `CCN(CC)CCn1cc(NC(=O)c2cc(C(=O)c3c(Cl)ccc(Cl)c3F)c[nH]2)cn1` [Example 43, 4-(3,6-Dichloro-2-fluorobenzoyl)-N-(1-(2-(diethylamino)ethyl)-1H-pyrazol-4-yl)-1H-pyrrole-2-carboxamide], the IC50 was 207 nM.

Turning to `CCn1cc(NC(=O)c2cc(C(=O)c3c(Cl)ccc(Cl)c3F)c[nH]2)cn1` [Example 46, 4-(3,6-Dichloro-2-fluorobenzoyl)-N-(1-ethyl-1H-pyrazol-4-yl)-1H-pyrrole-2-carboxamide], the IC50 was 66.5 nM.

On to `COCCn1cc(NC(=O)c2cc(C(=O)c3c(Cl)ccc(Cl)c3F)c[nH]2)cn1` [Example 47, 4-(3,6-Dichloro-2-fluorobenzoyl)-N-(1-(2-methoxyethyl)-1H-pyrazol-4-yl)-1H-pyrrole-2-carboxamide], for which the IC50 was 75.2 nM.

Consider `O=C(Nc1cnn(Cc2ccccn2)c1)c1cc(C(=O)c2c(Cl)ccc(Cl)c2F)c[nH]1` [Example 48, 4-(3,6-Dichloro-2-fluorobenzoyl)-N-(1-(pyridin-2-ylmethyl)-1H-pyrazol-4-yl)-1H-pyrrole-2-carboxamide], for which the IC50 worked out at 80.7 nM.

As to `O=C(Nc1cnn(Cc2cccnc2)c1)c1cc(C(=O)c2c(Cl)ccc(Cl)c2F)c[nH]1` [Example 49, 4-(3,6-Dichloro-2-fluorobenzoyl)-N-(1-(pyridin-3-ylmethyl)-1H-pyrazol-4-yl)-1H-pyrrole-2-carboxamide], the IC50 turned out to be 20.2 nM.
